In BindingDB's records for patent US9776990 (Abbvie, 2017):

Molecular target: Bromodomain-containing protein 4 (Homo sapiens, UniProt O60885)

SMILES | Ki [µM]
Cc1[nH]c(-c2cccc3ccccc23)c2c1C(=O)CCC2 [US9776990, Example 19] | 19.7
Cc1[nH]c(-c2ccccc2CN2C(=O)c3ccccc3C2=O)c2c1C(=O)CCC2 [US9776990, Example 26] | 10.4
Cc1[nH]c(-c2ccccc2Oc2ccccc2)c2c1C(=O)CC(CC(C)C)C2 (stereo not drawn) [US9776990, Example 68] | 22.2
